In patent publication US12187713B2, “Immunomodulators, compositions and methods thereof” (Betta Pharmaceuticals Co., Ltd, priority 2019, dated 2025):

Molecular target: PD-1/PD-L1 (Homo sapiens (Human), UniProt Q9NZQ7)
Assay: PD-1/PD-L1 Binding Assay (Alphascreen)
Conditions: numeric values
Protocol: PD-1/PD-L1 Binding Assay (Alphascreen)
The assays were conducted in a standard black 384-well polystyrene plate with a final volume of 20 μL. Inhibitors were first serially diluted in DMSO and then added to the plate wells before the addition of other reaction components. The final concentration of DMSO in the assay was […]. Add 100 nL/well of compound to the 384 reaction plate (6008280, PerkinElmer) with Echo and centrifuge at 1000 rpm for 1 minute. Add 5 μL/well 4×PD-L1 solutions to the 384 reaction plate, centrifuge at 1000 rpm for 1 minute, and add 5 μL/well 4×PD-1 solutions, centrifuge at 1000 rpm for 1 minute, and incubate at 25° C. for 15 minutes. The concentrations of the compounds were 300, 100, 33.33, 11.11, 3.70, 1.23, 0.41, 0.137, 0.046, 0.015, 0 nM, respectively. Add 10 μL/well 2× Anti-6×His AlphaLISA Acceptor beads and Streptavidin Donor beads solution (PerkinElmer-AL356F) to the above 384 reaction plate, centrifuge at 1000 rpm for 1 minute, and incubate at 25° C. in the dark for 120 minutes. Read the AlphaLISA signal value using the Envision Reader. IC50 determination was performed by fitting the curve of percent control activity versus the log of the inhibitor concentration using the GraphPad Prism 8.0 software.

PD-1/PD-L1, sequence (Q9NZQ7 19-238): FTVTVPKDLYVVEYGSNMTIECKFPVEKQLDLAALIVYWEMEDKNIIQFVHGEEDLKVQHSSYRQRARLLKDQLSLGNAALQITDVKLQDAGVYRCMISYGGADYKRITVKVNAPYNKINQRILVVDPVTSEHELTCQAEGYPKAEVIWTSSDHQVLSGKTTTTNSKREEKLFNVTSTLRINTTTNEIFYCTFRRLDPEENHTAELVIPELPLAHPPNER

IC50 [nM]	Compound
3.8	Cc1c(-c2nc3cc(CNCCS(C)(=O)=O)c(OC(F)F)cc3o2)cccc1-c1cccc(-c2nc3cc(CN4CCC[C@H]4C(=O)O)c(OC(F)F)cc3o2)c1C [Example 32, ((6-(difluoromethoxy)-2-(3′-(6-(difluoromethoxy)-5-(((2-(methylsulfonyl)ethyl)amino)methyl)benzo[d]oxazol-2-yl)-2,2′-dimethyl-[1,1′-biphenyl]-3-yl)benzo[d]oxazol-5-yl)methyl)-L-proline]
0.91	Cc1c(-c2nc3cc(CN4CC[C@@H]4CO)c(OC(F)F)cc3o2)cccc1-c1cccc(-c2nc3cc(CN4CCC[C@H]4C(=O)O)c(OC(F)F)cc3o2)c1C [Example 35, ((6-(difluoromethoxy)-2-(3′-(6-(difluoromethoxy)-5-(((R)-2-(hydroxymethyl)azetidin-1-yl)methyl)benzo[d]oxazol-2-yl)-2,2′-dimethyl-[1,1′-biphenyl]-3-yl)benzo[d]oxazol-5-yl)methyl)-L-proline]
2.4	Cc1c(-c2nc3cc(CN4CCC[C@H]4C(=O)O)c(OC(F)F)cc3o2)cccc1-c1cccc(-c2nc3cc(CN4CCC45COC5)c(OC(F)F)cc3o2)c1C [Example 39, ((2-(3′-(5-((6-oxa-1-azaspiro[3.3]heptan-1-yl)methyl)-6-(difluoromethoxy)benzo[d]oxazol-2-yl)-2,2′-dimethyl-[1,1′-biphenyl]-3-yl)-6-(difluoromethoxy)benzo[d]oxazol-5-yl)methyl)-L-proline]
1.1	Cc1c(-c2nc3cc(CN4CC(C)(O)C4)c(OC(F)F)cc3o2)cccc1-c1cccc(-c2nc3cc(CN4CCC[C@H]4C(=O)O)c(OC(F)F)cc3o2)c1C [Example 44, ((6-(difluoromethoxy)-2-(3′-(6-(difluoromethoxy)-5-((3-hydroxy-3-methylazetidin-1-yl)methyl)benzo[d]oxazol-2-yl)-2,2′-dimethyl-[1,1′-biphenyl]-3-yl)benzo[d]oxazol-5-yl)methyl)-L-proline]

Same assay, conditions: range symbols

IC50 [nM]	Compound
0.1 to 5	Cc1c(-c2nc3cc(CN4CCC[C@H]4C(=O)O)c(OC(F)F)cc3o2)cccc1-c1cccc(-c2nc3cc(CN4CCC4(C)O)c(OC(F)F)cc3o2)c1C (stereo partly drawn) [Example 37, ((6-(difluoromethoxy)-2-(3′-(6-(difluoromethoxy)-5-((2-hydroxy-2-methylazetidin-1-yl)methyl)benzo[d]oxazol-2-yl)-2,2′-dimethyl-[1,1′-biphenyl]-3-yl)benzo[d]oxazol-5-yl)methyl)-L-proline]
0.1 to 5	Cc1c(-c2nc3cc(CN4CCCC4C)c(OC(F)F)cc3o2)cccc1-c1cccc(-c2nc3cc(CN4CCC[C@H]4C(=O)O)c(OC(F)F)cc3o2)c1C (stereo partly drawn) [Example 38, ((6-(difluoromethoxy)-2-(3′-(6-(difluoromethoxy)-5-((2-methylpyrrolidin-1-yl)methyl)benzo[d]oxazol-2-yl)-2,2′-dimethyl-[1,1′-biphenyl]-3-yl)benzo[d]oxazol-5-yl)methyl)-L-proline]
0.1 to 5	Cc1c(-c2nc3cc(CN4CCC[C@H]4C(=O)O)c(OC(F)F)cc3o2)cccc1-c1cccc(-c2nc3cc(CN4CCC4(C)N)c(OC(F)F)cc3o2)c1C (stereo partly drawn) [Example 40, ((2-(3′-(5-((2-amino-2-methylazetidin-1-yl)methyl)-6-(difluoromethoxy)benzo[d]oxazol-2-yl)-2,2′-dimethyl-[1,1′-biphenyl]-3-yl)-6-(difluoromethoxy)benzo[d]oxazol-5-yl)methyl)-L-proline]
5 to 50	Cc1c(-c2nc3cc(CN4CC(S(C)(=O)=O)C4)c(OC(F)F)cc3o2)cccc1-c1cccc(-c2nc3cc(CN4CCC[C@H]4C(=O)O)c(OC(F)F)cc3o2)c1C [Example 41, ((6-(difluoromethoxy)-2-(3′-(6-(difluoromethoxy)-5-((3-(methylsulfonyl)azetidin-1-yl)methyl)benzo[d]oxazol-2-yl)-2,2′-dimethyl-[1,1′-biphenyl]-3-yl)benzo[d]oxazol-5-yl)methyl)-L-proline]
0.1 to 5	CC[C@@H]1CCN1Cc1cc2nc(-c3cccc(-c4cccc(-c5nc6cc(CN7CCC[C@H]7C(=O)O)c(OC(F)F)cc6o5)c4C)c3C)oc2cc1OC(F)F [Example 42, ((6-(difluoromethoxy)-2-(3′-(6-(difluoromethoxy)-5-(((R)-2-ethylazetidin-1-yl)methyl)benzo[d]oxazol-2-yl)-2,2′-dimethyl-[1,1′-biphenyl]-3-yl)benzo[d]oxazol-5-yl)methyl)-L-proline]
5 to 50	COC1CN(Cc2cc3nc(-c4cccc(-c5cccc(-c6nc7cc(CN8CCC[C@H]8C(=O)O)c(OC(F)F)cc7o6)c5C)c4C)oc3cc2OC(F)F)C1 [Example 43, ((6-(difluoromethoxy)-2-(3′-(6-(difluoromethoxy)-5-((3-methoxyazetidin-1-yl)methyl)benzo[d]oxazol-2-yl)-2,2′-dimethyl-[1,1′-biphenyl]-3-yl)benzo[d]oxazol-5-yl)methyl)-L-proline]
0.1 to 5	CNCC1CN(Cc2cc3nc(-c4cccc(-c5cccc(-c6nc7cc(CN8CCC[C@H]8C(=O)O)c(OC(F)F)cc7o6)c5C)c4C)oc3cc2OC(F)F)C1 [Example 45, ((6-(difluoromethoxy)-2-(3′-(6-(difluoromethoxy)-5-((3-((methylamino)methyl)azetidin-1-yl)methyl)benzo[d]oxazol-2-yl)-2,2′-dimethyl-[1,1′-biphenyl]-3-yl)benzo[d]oxazol-5-yl)methyl)-L-proline]
5 to 50	Cc1c(-c2nc3cc(CN4CC(=O)C4)c(OC(F)F)cc3o2)cccc1-c1cccc(-c2nc3cc(CN4CCC[C@H]4C(=O)O)c(OC(F)F)cc3o2)c1C [Example 46, ((6-(difluoromethoxy)-2-(3′-(6-(difluoromethoxy)-5-((3-oxoazetidin-1-yl)methyl)benzo[d]oxazol-2-yl)-2,2′-dimethyl-[1,1′-biphenyl]-3-yl)benzo[d]oxazol-5-yl)methyl)-L-proline]
0.1 to 5	Cc1c(-c2nc3cc(CN4CC5(COC5)C4)c(OC(F)F)cc3o2)cccc1-c1cccc(-c2nc3cc(CN4CCC[C@H]4C(=O)O)c(OC(F)F)cc3o2)c1C [Example 47, ((2-(3′-(5-((2-oxa-6-azaspiro[3.3]heptan-6-yl)methyl)-6-(difluoromethoxy)benzo[d]oxazol-2-yl)-2,2′-dimethyl-[1,1′-biphenyl]-3-yl)-6-(difluoromethoxy)benzo[d]oxazol-5-yl)methyl)-L-proline]
0.1 to 5	Cc1c(-c2nc3cc(CN4CC5(CCC5)C4)c(OC(F)F)cc3o2)cccc1-c1cccc(-c2nc3cc(CN4CCC[C@H]4C(=O)O)c(OC(F)F)cc3o2)c1C [Example 48, ((2-(3′-(5-((2-azaspiro [3.3]heptan-2-yl)methyl)-6-(difluoromethoxy)benzo[d]oxazol-2-yl)-2,2′-dimethyl-[1,1′-biphenyl]-3-yl)-6-(difluoromethoxy)benzo[d]oxazol-5-yl)methyl)-L-proline]
0.1 to 5	Cc1c(-c2nc3cc(CN4CC5CCCC5C4)c(OC(F)F)cc3o2)cccc1-c1cccc(-c2nc3cc(CN4CCC[C@H]4C(=O)O)c(OC(F)F)cc3o2)c1C (stereo partly drawn) [Example 49, ((6-(difluoromethoxy)-2-(3′-(6-(difluoromethoxy)-5-((hexahydrocyclopenta [c]pyrrol-2(1H)-yl)methyl)benzo[d]oxazol-2-yl)-2,2′-dimethyl-[1,1′-biphenyl]-3-yl)benzo[d]oxazol-5-yl)methyl)-L-proline]
0.1 to 5	Cc1c(-c2nc3cc(CN4CC5CNCC5C4)c(OC(F)F)cc3o2)cccc1-c1cccc(-c2nc3cc(CN4CCC[C@H]4C(=O)O)c(OC(F)F)cc3o2)c1C (stereo partly drawn) [Example 50, ((6-(difluoromethoxy)-2-(3′-(6-(difluoromethoxy)-5-((hexahydropyrrolo [3,4-c]pyrrol-2(1H)-yl)methyl)benzo[d]oxazol-2-yl)-2,2′-dimethyl-[1,1′-biphenyl]-3-yl)benzo[d]oxazol-5-yl)methyl)-L-proline]
0.1 to 5	Cc1c(-c2nc3cc(CN4CC5(CCNCC5)C4)c(OC(F)F)cc3o2)cccc1-c1cccc(-c2nc3cc(CN4CCC[C@H]4C(=O)O)c(OC(F)F)cc3o2)c1C [Example 51, ((2-(3′-(5-((2,7-diazaspiro[3.5]nonan-2-yl)methyl)-6-(difluoromethoxy)benzo[d]oxazol-2-yl)-2,2′-dimethyl-[1,1′-biphenyl]-3-yl)-6-(difluoromethoxy)benzo[d]oxazol-5-yl)methyl)-L-proline]
0.1 to 5	CCCNCCCNCc1cc2nc(-c3cccc(-c4cccc(-c5nc6cc(CN7CCC[C@H]7C(=O)O)c(OC(F)F)cc6o5)c4C)c3C)oc2cc1OC(F)F [Example 52, ((6-(difluoromethoxy)-2-(3′-(6-(difluoromethoxy)-5-(((3-(propylamino)propyl)amino)methyl)benzo [d]oxazol-2-yl)-2,2′-dimethyl-[1,1′-biphenyl]-3-yl)benzo[d]oxazol-5-yl)methyl)-L-proline]
0.1 to 5	CCCNCCCN(C)Cc1cc2nc(-c3cccc(-c4cccc(-c5nc6cc(CN7CCC[C@H]7C(=O)O)c(OC(F)F)cc6o5)c4C)c3C)oc2cc1OC(F)F [Example 53, ((6-(difluoromethoxy)-2-(3′-(6-(difluoromethoxy)-5-((methyl(3-(propylamino)propyl)amino)methyl)benzo [d]oxazol-2-yl)-2,2′-dimethyl-[1,1′-biphenyl]-3-yl)benzo[d]oxazol-5-yl)methyl)-L-proline]
